{"source": "paper PMC10666768", "about": "“Optimized peptide nanofibrils as efficient transduction enhancers for in vitro and ex vivo gene transfer” (Frontiers in Immunology, 2023)", "key": {"[1]": {"assay": "Chemical stability of PNFs by HPLC and MALDI-TOF MS", "format": "physicochemical", "details": "2 mg/ml PNFs in PBS, RT or 37°C, 10 min, 1 h, 24 h, 10 d; reversed-phase C18 HPLC, UV 214 nm", "description": "RM-8 and D4 were prepared at 2 mg/ml in PBS and were incubated at room temperature (RT) or 37°C for 10 min, 1 hour, 24 hours, and 10 days. Aliquots (25 µL) of both samples were separated after 10 minutes, 1 hour, 24 hours, and 10 days and centrifuged at 13,000 x g for one minute. Supernatants were diluted with 100 µL 10% acetic acid, whereas the pellets were dissolved in 125 µL 6 M guanidinium chloride. All samples were analyzed in an Agilent 1100 Series HPLC system, using a reversed-phase BioBasicTM 18-HPLC column (Thermo Scientific) of dimensions 2.1 x 100 mm and particle size of 5 µm. Gradient elution was used for elution as follows (RM-8): 0 min/5%B, 1 min/20%B, and 15 min/40%B; and for D4: 0 min/5%B, 1 min/15%B, and 15 min/35/%B), being A, 0. 1% TFA in water, and B, 0.1% TFA in acetonitrile. The flow rate was 0.5 mL/min, and the detection was monitored online by UV absorption at 214 nm. ChemStation (version B.04.03, Agilent) was used for data acquisition and the HPLC system’s control.\nMass spectra were obtained with an Axima Confidence MALDI-TOF mass spectrometer (Shimadzu). Measurements were performed in positive ion reflectron mode. The mass range was 100–10000 Da. For each sample, 20 shots were accumulated per profile (100 profiles per spectra) using a laser power of 42% and a laser frequency of 50 Hz. TOFMix MALDI kit (Shimadzu) was used for external mass calibration. […]"}, "[2]": {"system": "human NK cells", "details": "4-day incubation, propidium iodide, three donors", "procedure": "NK cells were isolated from buffy coats of healthy donors by standard density-gradient centrifugation, using Ficoll-Paque (VWR, Cat: 17-1440-03) using the RosetteSep™ Human NK Cell Enrichment Cocktail ([sequence] Technologies, Cat: 15065). NK cells were cultured at 1×10^6 cells/ml in NK MACS medium (Miltenyi Biotec, Cat: 130-114-429) with 5% human AB serum (Sigma Aldrich, Cat: H4522-100ML), 500 U/ml IL-2 (Peprotech, Cat: 200-02) and 140 U/ml IL-15 (Peprotech, Cat: 200-15). […] 1.25×10^5 NK cells were seeded per well in a 48-well plate. […] Propidium Iodide (PI) (Miltenyi Biotec, Cat: 130-093-233) staining was used to determine the viability of NK cells."}, "[3]": {"system": "human T cells", "details": "trypan blue after 7 days"}, "[4]": {"system": "NF-κB pathway", "assay": "THP1-Dual cells, NF-κB pathway (SEAP)", "format": "cell-based", "details": "24 h", "description": "To analyze if PNFs stimulate an immune response, different PNFs concentrations (5, 10, 30 and 50 µg/ml) and 0.1 µg/ml lipopolysaccharide (LPS, InvivoGen, Cat: tlrl-eklps) as a positive control were incubated with 70,000 THP1-Dual cells, a monocyte cell line that allows the simultaneous analysis of the NF-κB and interferon regulatory factor (IRF) pathway, which are major effectors of the innate immune response ([45]). After 24 h, cellular supernatants were analyzed for the activation of the NF-κB pathway by measuring the activity of secreted alkaline phosphatase (SEAP). Therefore, 20 µl supernatant was mixed with 120 µl Alkaline Phosphatase Blue Microwell Substrate (Sigma Aldrich, Cat: AB0100-1KT). After 10 min, 30 µl Alkaline Phosphatase Stop Solution (Sigma Aldrich, Cat: A5852) was added and adsorption at 620 nm was measured using VersaMax Microplate Reader (Molecular Devices). For analysis of IRF pathway, secreted Gaussia Luciferase was measured. 25 µl supernatant was transferred to a white 96 well microtiter plate and Gaussia substrate (82.6 µg/ml Colenterazine, PJK, Cat: 102172) was automatically added according to manufacturer’s protocol and Luminescence was measured by Orion II Microplate Luminometer (Berthold)."}, "[5]": {"system": "TZM-bl cells", "description": "To determine the effect of peptides on cellular metabolic activity, MTT (Thiazolyl blue tetrazolium bromide) Cell Growth Assay (Merck, Cat: CT02) and CellTiter-Glo Luminescent Cell Viability Assay (Promega, Cat: G7571) were performed. 10,000 TZM-bl cells or 50,000 Jurkat cells were seeded into 96-well plates and treated with indicated concentrations of peptides. For TZM-bl cells, the supernatants were removed after three days and 100 µl MTT (0.5 mg/ml) was added and incubated for 2.5 hours. For Jurkat cells, supernatants were removed after two days, and cells were incubated with 40 μl MTT (1 mg/ml) for 5 hours. Then the MTT solution was removed, and 100 µl 1:1 DMSO-Ethanol was added. The absorption was measured at 590 nm with baseline-corrected at 650 nm using VersaMax Microplate Reader (Molecular Devices). The CellTiter-Glo assay was performed according to the manufacturing protocol. 100 μl CellTiter-Glo Reagent 1:1 diluted in PBS (Gibco, 14200075) was added to pelleted Jurkat cells for 10 min followed by transferring 50 µl to white microplate, and luminescence was recorded by Orion microplate luminometer (Berthold).\n(A) TZM-bl cells were treated […]\nwith different peptide concentrations. MTT assay was performed three days later. […] The cell viability in % was calculated by normalizing sample values to untreated control which was set to 100 %. […]"}}, "note": "“Also recorded” adds a separate entry of the source. Peptide text beside a SMILES is read from it."}
{"smiles": "CC[C@H](C)[C@H](NC(=O)[C@H](CCCNC(=N)N)NC(=O)[C@@H](N)CCCNC(=N)N)C(=O)N[C@@H](Cc1ccccc1)C(=O)N[C@H](C(=O)N[C@H](C(=O)N[C@@H](CO)C(=O)N[C@@H](CCSC)C(=O)O)[C@@H](C)CC)[C@@H](C)CC", "note": "[D4] (H-RRIFIISM-OH)", "values": [{"measurement": "Chemical stability by HPLC", "setting": "[1]", "result": "chemically stable for 10 days; also recorded: single peak with unchanged retention time"}, {"measurement": "NK cell viability", "setting": "[2]", "result": "did not show any impact on cell viability"}, {"measurement": "T cell viability after GALV-RV transduction", "setting": "[3]; four donors", "result": "neither D4 PNF nor the other transduction enhancers affected T cell viability"}, {"measurement": "Activation of NF-κB pathway at 50 µg/ml", "setting": "[4]", "result": "significant activation of the NF-kB pathway"}]}
{"smiles": "CC[C@H](C)[C@H](NC(=O)[C@H](Cc1ccccc1)NC(=O)[C@@H](NC(=O)[C@@H](NC(=O)[C@@H](N)CCCNC(=N)N)[C@@H](C)O)[C@@H](C)CC)C(=O)N[C@H](C(=O)N[C@@H](CO)C(=O)N[C@@H](CCSC)C(=O)N[C@@H](Cc1ccc(O)cc1)C(=O)N[C@@H](CCCCN)C(=O)O)[C@@H](C)CC", "note": "[RK-10] (H-RTIFIISMYK-OH)", "values": [{"measurement": "Cytotoxicity, TZM-bl cells", "setting": "[5]", "result": "not being cytotoxic"}]}
{"smiles": "CC[C@H](C)[C@H](NC(=O)[C@H](Cc1ccccc1)NC(=O)[C@@H](NC(=O)[C@@H](NC(=O)[C@@H](N)CCCNC(=N)N)[C@@H](C)O)[C@@H](C)CC)C(=O)N[C@H](C(=O)N[C@@H](CO)C(=O)N[C@@H](CCSC)C(=O)O)[C@@H](C)CC", "note": "[RM-8] (H-RTIFIISM-OH)", "values": [{"measurement": "Cytotoxicity, TZM-bl cells", "setting": "[5]", "result": "not being cytotoxic"}, {"measurement": "Chemical stability by HPLC", "setting": "[1]", "result": "chemically stable over time; also recorded: chemically stable for 10 days"}, {"measurement": "NK cell viability at highest concentration", "setting": "[2]; 30 µg/ml", "result": "slightly reduced cell viability"}, {"measurement": "Cytotoxic effect on T cells, GALV-RV transduction", "setting": "[3]; two donors", "result": "not showing any cytotoxic effect"}]}
